Assay results taken from patent publication US20210282443A1, “COMPOUNDS, COMPOSITIONS, AND METHODS FOR MODULATING SWEET TASTE” (Chromocell Corporation, priority 2016, published 2021).

Tested on: perception of sweet taste of High Fructose Corn Syrup (HFCS)
Assay: 2AFC sip and spit sensory test, sweet taste of HFCS in Lemon Lime beverage
Assay type: in vivo, humans
Settings: Lemon Lime pH 3.1
Method: The effect of the test compounds and combinations of test compounds on the perception of the sweet taste of a flavored beverage (referred to as Lemon Lime henceforth) of sweetener in humans was evaluated using a two-alternative forced choice “sip and spit” method (2AFC). The Lemon Lime solutions were prepared by adding sucrose equivalent (SE) quantities of high fructose corn syrup (HFCS) (by weight), to water to achieve the desired concentration. The lemon lime pH is 3.1. Compounds were first prepared as a 500-fold concentrated stock solution in 100% ethanol. These concentrated stocks were then added to the aqueous sweetener solutions to result in a final ethanol concentration of 0.2%. The control (positive and negative) samples were also normalized to 0.2% ethanol. This level of ethanol was not seen to contribute any perceived sweetness. The 2AFC test used for compound evaluation was a double blinded and randomized test where taste panelists (n≥15) evaluate a pair of sweetener solutions at a time—one sample contains aqueous sweetener solution plus compound (i.e. test) while the other contains aqueous sweetener solution at higher concentration without compound (i.e. positive control). Each test sample was compared against a positive control. For example, if the test sample contained 1× sweetener concentration with compound (e.g. 5brix HFCS with compound), the positive control sample contained a 1.1× sweetener concentration (e.g. 5.5brix HFCS without compound). In this manner, compounds were not assessed simply for an increase in perceived sweetness, but a significant increase in perceived sweetness above the positive control. […] Data were analyzed using binomial probabilities. Approximate levels of sweetness enhancement in column 5 of Table 1 were calculated as follows: Approximate levels of sweetness enhancement=Sweetener concentration of positive control surpassed by the test sample, divided by sweetener concentration for compound-containing sample (e.g. 1.5×=7.5brix HIFCS/5brix HIFCS).

COc1cc(C2CC(=O)Oc3cc(C)cc(O)c32)ccc1O (racemic) [Compound 1, 5-hydroxy-4-(4-hydroxy-3-methoxyphenyl)-7-methylchroman-2-one]
Fold increase in perceived sweetness (25 ppm compound, 10 brix HFCS / 7.14 brix HFCS): >1.4× | Compund concentration with positive 2AFC results (test sample 7.14 brix HFCS vs positive control 10 brix HFCS, panelists n≥15): 25 ppm | Sweetener Concentration of positive control surpassed by test sample (test sample 7.14 brix HFCS with 25 ppm compound): 10 brix HFCS
